US8481521B2, “Methods of treating cell proliferative disorders” (Rigel Pharmaceuticals, Inc., priority 2005, dated 2013)
In brackets after ≈: the same amount, converted by molar mass. Where two headings read alike, the source gives them in different places.

Assays:
[1] = system: MV4-11 human acute myeloid leukemia cells; assay: Subcutaneous MV4-11 tumor growth (initial studies); type: in vivo, mice
Text: The Flt-3 ITD mutation has been associated with poor prognosis and reduced remission rates in affected AML patients, making it an attractive target for therapeutic intervention. Studies have shown that mutant Flt-3 ITD receptors dimerize in a Flt-3 ligand-independent manner and auto-phosphorylation of the receptor results in constitutive activation, increased proliferation, and growth factor independence of the mutant cell.

[2] = Pharmacokinetics in NOD-SCID mice after PO VII calcium salt (plasma VI); type: in vivo; set-up: T-max (Compound VI in plasma): unit not given here
Description: Initial PK data in NOD-SCID mice was generated in an intial study prior to dosing in this study.
Due to precipitates observed in on-study formulations prepared in the initial study and other studies, additional PK data was obtained using remaining dosing solutions after study termination. NOD-SCID female mice (n=4) were dosed with 40 mg/kg dose solution of VII and plasma obtained at 1 hour post dose.
Table 5A and 5B: PO administration of VII Calcium Salt: Mean Concentration of Compound VI in Plasma (ng/mL).

[3] = GLP mutagenicity and clastogenicity studies (Ames, chromosomal aberration, mouse micronucleus)
Description: (§1) GLP toxicology studies included negative mutagenicity and clastogenicity studies (Ames, chromosomal aberration, and mouse micronucleus). […] The No Observed Adverse Effect Level (NOAEL) is 10-30 mg/kg/day for rats and 100 mg/kg/day for monkeys.

[4] = in vivo
Description: as §1

[5] = Solubility of drug and phosphate prodrug; type: physicochemical
Text: In contrast, Compound 4 is highly polar at neutral pH. Measured solubility values are consistent with the predicted cLogD values at pH=7.5.

[6] = system: AML cells harboring Flt-3 ITD; assay: Apoptosis of AML cells (Annexin V and PI staining); type: cell-based; conditions: 1 uM, 48 h
Description: (§2) AML cells or 32D transfectants were treated for 48 h (AML) or 24 h (32D) with 1 uM VI, and the increase in % of apoptotic cells was determined using Annexin V and PI staining.

[7] = system: Myc-transformed pre-B cells; assay: Proliferation (DNA content) of Myc-transformed pre-B cells; type: cell-based; conditions: 36 hours, 2 μM
Text: FIG. 2A is a FACS profile of pre-B cells that were transduced with Myc expression vectors and cultured in the absence of IL-7 for 1 week.
To determine the effect of Syk inhibitor on proliferation of leukemic cells, several tumorigenic pre-B cell lines that induce leukemia after injection into mice were used. Because tumorigenic cells need the pre-B cell receptor (pre-BCR) for proliferation, and Syk is a critical protein for pre-BCR signaling cascade, it is expected that Syk inhibitors will inhibit proliferation of these tumorigenic pre-B cells. […] Cells were injected into […] mice to examine their ability to proliferate in vivo.

[8] = system: TEL-Syk-transformed cells; assay: Proliferation (DNA content) and differentiation of TEL-Syk-transformed pre-B cells; type: cell-based
Description: Cells were cultured for 3 days in the absence of IL-7 and analyzed for the expression of kappa LC by FACS. Experiments showing the inhibition of proliferation of Syk-transformed cells by a Syk inhibitory compound are described in […]., Abe, A., and Jumaa, H., “The protein tyrosine kinase Syk is involved in malignant transformation and leukemia development,” (manuscript in preparation). The experiments described in the manuscript are briefly summarized below. Aberrant Syk variants resulting from chromosomal translocation Tel-Syk were tested for its ability to transform pre-B cells by retrovirally transducing freshly isolated bone marrow pre-B cells with IRES-GFP vectors expressing Tel-Syk. […] Transformation of the pre B cells by Tel-Syk activity was confirmed by injecting the TEL-SYK transduced cells into RAG/γC-/- mice, which led to animals presenting symptoms of myelodysplastic disease. […] To test whether inhibition of Syk activity in the cells transformed with Tel-Syk block cell proliferation, the effect of Syk kinase inhibitor 2,4-pyrimidinediamine compound IV was tested in vitro by examining the DNA content of treated cells.

[9] = system: tumorigenic SLP-65−/− pre-B cell lines; assay: Proliferation (DNA content) of tumorigenic SLP-65-/- pre-B cell lines; type: cell-based; conditions: 36 hours, 2 μM
[10] = system: 32D transfected with ITD or point mutated Flt-3; assay: Apoptosis of 32D transfectants (Annexin V and PI staining); type: cell-based; conditions: 1 uM, 24 h
Description: as §2

N4-(2,2-dimethyl-4-[(dihydrogen phosphonoxy)methyl]-3-oxo-5-pyrido[1,4]oxazin-6-yl)-5-fluoro-N2-(3,4,5-trimethoxyphenyl)-2,4-pyrimidinediamine mono calcium salt [Compound 6]
subcutaneous tumor growth [1]: reduced subcutaneous tumor growth | AUCinf (Compound VI in plasma) ([2]; PO 20 mg/kg, Female): 5362 ng·h/mL | AUClast (Compound VI in plasma) ([2]; PO 20 mg/kg, Female): 5351 ng·h/mL | C-max (Compound VI in plasma) ([2]; PO 20 mg/kg, Female): 3717 ng/mL | T1/2 (Compound VI in plasma) ([2]; PO 20 mg/kg, Female): 35.4 min | T-max (Compound VI in plasma) ([2]; PO 20 mg/kg, Female): 0.25 | Mean Concentration of Compound VI in Plasma ([2]; PO 20 mg/kg, Female, 0.25 hrs): 3717 ng/mL | Mean Concentration of Compound VI in Plasma ([2]; PO 20 mg/kg, Female, 0.5 hrs): 2240 ng/mL | Mean Concentration of Compound VI in Plasma ([2]; PO 20 mg/kg, Female, 1 hrs): 1737 ng/mL | Mean Concentration of Compound VI in Plasma ([2]; PO 20 mg/kg, Female, 2 hrs): 1438 ng/mL | Mean Concentration of Compound VI in Plasma ([2]; PO 20 mg/kg, Female, 4 hrs): 55.0 ng/mL | Mean Concentration of Compound VI in Plasma ([2]; PO 20 mg/kg, Female, 6 hrs): 13.0 ng/mL | AUCinf (Compound VI in plasma) ([2]; PO 20 mg/kg, Male): 11434 ng·h/mL | AUClast (Compound VI in plasma) ([2]; PO 20 mg/kg, Male): 10261 ng·h/mL | C-max (Compound VI in plasma) ([2]; PO 20 mg/kg, Male): 3377 ng/mL | T1/2 (Compound VI in plasma) ([2]; PO 20 mg/kg, Male): 107 min | T-max (Compound VI in plasma) ([2]; PO 20 mg/kg, Male): 0.50 | Mean Concentration of Compound VI in Plasma ([2]; PO 20 mg/kg, Male, 0.25 hrs): 1872 ng/mL | Mean Concentration of Compound VI in Plasma ([2]; PO 20 mg/kg, Male, 0.5 hrs): 3377 ng/mL | Mean Concentration of Compound VI in Plasma ([2]; PO 20 mg/kg, Male, 1 hrs): 3280 ng/mL | Mean Concentration of Compound VI in Plasma ([2]; PO 20 mg/kg, Male, 2 hrs): 2130 ng/mL | Mean Concentration of Compound VI in Plasma ([2]; PO 20 mg/kg, Male, 4 hrs): 1209 ng/mL | Mean Concentration of Compound VI in Plasma ([2]; PO 20 mg/kg, Male, 6 hrs): 454 ng/mL | AUCinf (Compound VI in plasma) ([2]; PO 40 mg/kg, Female): 11625 ng·h/mL | AUClast (Compound VI in plasma) ([2]; PO 40 mg/kg, Female): 11498 ng·h/mL | C-max (Compound VI in plasma) ([2]; PO 40 mg/kg, Female): 5497 ng/mL | T1/2 (Compound VI in plasma) ([2]; PO 40 mg/kg, Female): 50.4 min | T-max (Compound VI in plasma) ([2]; PO 40 mg/kg, Female): 1.00 | Mean Concentration of Compound VI in Plasma ([2]; PO 40 mg/kg, Female, 0.25 hrs): 5140 ng/mL | Mean Concentration of Compound VI in Plasma ([2]; PO 40 mg/kg, Female, 0.5 hrs): 3597 ng/mL | Mean Concentration of Compound VI in Plasma ([2]; PO 40 mg/kg, Female, 1 hrs): 5497 ng/mL | Mean Concentration of Compound VI in Plasma ([2]; PO 40 mg/kg, Female, 2 hrs): 2823 ng/mL | Mean Concentration of Compound VI in Plasma ([2]; PO 40 mg/kg, Female, 4 hrs): 201 ng/mL | Mean Concentration of Compound VI in Plasma ([2]; PO 40 mg/kg, Female, 6 hrs): 105 ng/mL | AUCinf (Compound VI in plasma) ([2]; PO 40 mg/kg, Male): 27170 ng·h/mL | AUClast (Compound VI in plasma) ([2]; PO 40 mg/kg, Male): 20831 ng·h/mL | C-max (Compound VI in plasma) ([2]; PO 40 mg/kg, Male): 6370 ng/mL | T1/2 (Compound VI in plasma) ([2]; PO 40 mg/kg, Male): 138 min | T-max (Compound VI in plasma) ([2]; PO 40 mg/kg, Male): 2.00 | Mean Concentration of Compound VI in Plasma ([2]; PO 40 mg/kg, Male, 0.25 hrs): 3587 ng/mL | Mean Concentration of Compound VI in Plasma ([2]; PO 40 mg/kg, Male, 0.5 hrs): 2860 ng/mL | Mean Concentration of Compound VI in Plasma ([2]; PO 40 mg/kg, Male, 1 hrs): 5250 ng/mL | Mean Concentration of Compound VI in Plasma ([2]; PO 40 mg/kg, Male, 2 hrs): 6370 ng/mL | Mean Concentration of Compound VI in Plasma ([2]; PO 40 mg/kg, Male, 4 hrs): 1730 ng/mL | Mean Concentration of Compound VI in Plasma ([2]; PO 40 mg/kg, Male, 6 hrs): 1909 ng/mL | AUCinf (Compound VI in plasma) ([2]; PO 80 mg/kg, Female): 27662 ng·h/mL | AUClast (Compound VI in plasma) ([2]; PO 80 mg/kg, Female): 27013 ng·h/mL | C-max (Compound VI in plasma) ([2]; PO 80 mg/kg, Female): 8193 ng/mL | T1/2 (Compound VI in plasma) ([2]; PO 80 mg/kg, Female): 58.2 min | T-max (Compound VI in plasma) ([2]; PO 80 mg/kg, Female): 2.00 | Mean Concentration of Compound VI in Plasma ([2]; PO 80 mg/kg, Female, 0.25 hrs): 3847 ng/mL | Mean Concentration of Compound VI in Plasma ([2]; PO 80 mg/kg, Female, 0.5 hrs): 7433 ng/mL | Mean Concentration of Compound VI in Plasma ([2]; PO 80 mg/kg, Female, 1 hrs): 7267 ng/mL | Mean Concentration of Compound VI in Plasma ([2]; PO 80 mg/kg, Female, 2 hrs): 8193 ng/mL | Mean Concentration of Compound VI in Plasma ([2]; PO 80 mg/kg, Female, 4 hrs): 2529 ng/mL | Mean Concentration of Compound VI in Plasma ([2]; PO 80 mg/kg, Female, 6 hrs): 465 ng/mL

COc1cc(Nc2ncc(F)c(Nc3ccc4c(n3)NC(=O)C(C)(C)O4)n2)cc(OC)c1OC [Compound III, N4-(2,2-dimethyl-3-oxo-4H-5-pyrido[1,4]oxazin-6-yl)-5-fluoro-N2-(3,4,5-trimethoxyphenyl)-2,4-pyrimidinediamine]
mutagenicity and clastogenicity (Ames, chromosomal aberration, mouse micronucleus) [3]: negative | 28-day toxicity: hematology, bone marrow cellularity ([4]; monkey): reversible effect | 28-day toxicity: hematology, liver transaminase, spleen and thymus size, bone marrow cellularity ([4]; rat): reversible effect | plasma levels of VI by 6 hours post-dose ([2]; female mice, 20, 40 or 80 mg/kg doses of VII): virtually undetectable | solubility ([5]; aqueous buffer, phosphate buffer at pH=7.5, read-out: measured solubility): < 1 µg/mL | solubility ([5]; water solubility, read-out: Solubility): 1 to 2 µg/mL (≈ 2.13 to 4.25 µM) | induced apoptosis of AML cells harboring Flt-3 ITD [6]: uniquely sensitive | proliferation of Myc-transformed pre-B cells [7]: block the proliferation | differentiation of TEL-Syk-transformed pre-B cells (kappa light chain expression) [8]: induce differentiation | proliferation of TEL-Syk-transformed pre-B cells ([8]; DNA content, 36 hours, 2 μM): block proliferation | proliferation of tumorigenic SLP-65−/− pre-B cell lines [9]: block the proliferation | apoptosis of 32D transfected with ITD or point mutated Flt-3 vs wt Flt-3 [10]: undergo more apoptosis
